The species entered for data set [1] is Sus scrofa. As to the kind of experiment: Inhibition of porcine brain tubulin polymerization at 3 uM by fluorescence assay.
For data set [2], the species on record is Sus scrofa. As to the kind of experiment: Inhibition of colchicine binding to porcine brain tubulin up to 60 uM after 90 mins by fluorescence assay.
Data set [3] is described as follows: Photoactivation of prodrug assessed as 4-(4-(2-fluoropyridin-3-yl)phenyl)-N-(4-hydroxyphenyl)butanamide release at 1 mM under UV irradiation of 5400 mW after 1 min by HPLC-MS analysis.
Data set [4] can be described thus: Photoactivation of prodrug assessed as decay time constant for 4-(4-(2-fluoropyridin-3-yl)phenyl)-N-(4-hydroxyphenyl)butanamide release at 1 mM under UV irradiation of 5400 mW after 1 min by HPLC-MS analysis.
Data set [5] is described as follows: Photoactivation of prodrug assessed as time required to release maximum concentration of 4-(4-(2-fluoropyridin-3-yl)phenyl)-N-(4-hydroxyphenyl)butanamide at 1 mM under UV irradiation of 5400 mW by HPLC-MS analysis.
A short description of data set [6]: Dark toxicity against human U251 cells assessed as reduction in cell viability after 72 hrs by Cell-Titer Blue assay. The data set is classed as cell-based, U-251.
The test system of data set [7] is U-251. As to the kind of experiment: Phototoxicity against human U251 cells assessed as reduction in cell viability under UV irradiation of 1800 mW for 1 min measured after 72 hrs by Cell-Titer Blue assay. The data set is classed as functional, cell-based. As to conditions: U-251, light or radiation study.
Data set [8] can be described thus: Dark toxicity against patient-derived RN1 cells assessed as reduction in cell viability after 72 hrs by Cell-Titer Blue assay. The class given is cell-based. As to conditions: human.
The nature of data set [9]: Phototoxicity against patient-derived RN1 cells assessed as reduction in cell viability under UV irradiation of 1800 mW for 30 secs measured after 72 hrs by Cell-Titer Blue assay. The data set is classed as functional, cell-based. Particulars: Homo sapiens, RN1, light or radiation study.
The nature of data set [10]: Effect on kinetics of porcine brain tubulin polymerization at 50 uM under dark condition by fluorescence assay. As to conditions: pig. The class given is ADME, Sus scrofa.
For data set [11], the species on record is Sus scrofa. In words: Inhibition of porcine brain tubulin polymerization at 50 uM under UV irradiation of 1800 mW for 5 mins by fluorescence assay.
The nature of data set [12]: Effect on colchicine binding to porcine brain tubulin up to 60 uM after 90 mins under dark condition by fluorescence assay. The class given is ADME, Sus scrofa. As to conditions: pig, 1.5 h.
The nature of data set [13]: Disruption of microtubule organization in human U251 cells at 5 uM after 24 hrs under dark condition by DAPI staining based immunofluorescence assay. The data set is classed as ADME, cell-based.
Data set [14] can be described thus: Disruption of microtubule organization in human U251 cells assessed as changes in cell morphology at 5 uM after 24 hrs under dark condition by DAPI staining based immunofluorescence assay. The class given is ADME.
The species named for data set [15] is Homo sapiens. In words: Disruption of microtubule organization in human U251 cells assessed as cell rounding at 5 uM after 24 hrs under UV irradiation of 1800 mW for 5 mins by DAPI staining based immunofluorescence assay.
For data set [16], the species on record is Homo sapiens. In words: Disruption of microtubule organization in human U251 cells at 5 uM after 24 hrs under UV irradiation of 1800 mW for 5 mins by DAPI staining based immunofluorescence assay. The class given is cell-based.
The nature of data set [17]: Induction of apoptosis in patient-derived RN1 cells at 5 uM after 48 hrs under dark condition by Annexin V staining based assay (reference value: 8.1%). The data set is classed as cell-based. As to conditions: human, rn1, 48 h.
Data set [18] is described as follows: Induction of apoptosis in patient-derived RN1 cells assessed as live cells at 5 uM after 48 hrs under UV irradiation of 1800 mW for 30 secs by Annexin V staining based assay relative to control. The class given is functional, Homo sapiens.
Data set [19] can be described thus: Induction of apoptosis in patient-derived RN1 cells assessed as early apoptotic cells at 5 uM after 48 hrs under UV irradiation of 1800 mW for 30 secs by Annexin V staining based assay relative to control. The data set is classed as functional, Homo sapiens.
Data set [20] can be described thus: Induction of apoptosis in patient-derived RN1 cells assessed as late apoptotic cells at 5 uM after 48 hrs under UV irradiation of 1800 mW for 30 secs by Annexin V staining based assay relative to control. The data set is classed as functional, Homo sapiens.
The nature of data set [21]: Induction of apoptosis in patient-derived RN1 cells assessed as necrotic cells at 5 uM after 48 hrs under UV irradiation of 1800 mW for 30 secs by Annexin V staining based assay relative to control. The data set is classed as functional, Homo sapiens.
Data set [22] can be described thus: Drug metabolism in human U251 cells assessed as DMNB release up to 100 uM under UV irradiation of 1800 mW for 1 min measured after 72 hrs. The class given is ADME, cell-based. As to conditions: u-251, 72 h.
The subject of data set [23] is U-251. As to the kind of experiment: Phototoxicity against human U251 cells assessed as reduction in cell viability up to 100 uM under UV irradiation of 1800 mW for 1 min measured after 72 hrs by Cell-Titer Blue assay. The class given is functional, cell-based.
Data set [24] is described as follows: Photostability of the compound at 1 mM under UV irradiation of 5400 mW after 20 mins by HPLC-MS analysis.
Data set [25] deals with U-251. As to the kind of experiment: Cytotoxicity against human U251 cells assessed as reduction in cell viability after 72 hrs by Cell-Titer Blue assay. The class given is functional, cell-based. As to conditions: U-251, 72 h.
Data set [26] can be described thus: Cytotoxicity against patient-derived RN1 cells assessed as reduction in cell viability after 72 hrs by Cell-Titer Blue assay. The class given is functional, cell-based. As to conditions: Homo sapiens, RN1, 72 h.
Data set [27] is filed under the species Sus scrofa. As to the kind of experiment: Inhibition of porcine brain tubulin polymerization at 50 uM by fluorescence assay.
Data set [28] is filed under the species Sus scrofa. As to the kind of experiment: Inhibition of colchicine binding to porcine brain tubulin after 90 mins by fluorescence assay.
For data set [29], the species on record is Homo sapiens. In words: Disruption of microtubule organization in human U251 cells at 5 uM after 24 hrs by DAPI staining based immunofluorescence assay. The class given is cell-based.
Data set [30] is filed under the species Homo sapiens. In words: Disruption of microtubule organization in human U251 cells assessed as changes in cell morphology at 5 uM after 24 hrs by DAPI staining based immunofluorescence assay.
Data set [31] can be described thus: Induction of apoptosis in patient-derived RN1 cells at 5 uM after 48 hrs by Annexin V staining based assay (reference value: 8.1%). The class given is functional, Homo sapiens.
The test system of data set [32] is U-251. As to the kind of experiment: Cytotoxicity against human U251 cells assessed as reduction in cell viability at >40 uM after 72 hrs by Cell-Titer Blue assay. The class given is functional, cell-based.

This note sets out measurements from ChEMBL document CHEMBL3992566, “Development and Biological Evaluation of a Photoactivatable Small Molecule Microtubule-Targeting Agent” (ACS Med Chem Lett, 2017).

Activity calls are given as the source filed them. No cut-off for these calls is given here. A value given as a limit tells only on which side of the number the result lay.

What is called EC50 is the concentration needed to bring the measured effect to its halfway point.

For the compound `CC[C@]1(O)C[C@@H]2CN(CCc3c([nH]c4ccccc34)[C@@](C(=O)OC)(c3cc4c(cc3OC)N(C)[C@H]3[C@@](O)(C(=O)OC)[C@H](OC(C)=O)[C@]5(CC)C=CCN6CC[C@]43[C@@H]65)C2)C1`, the inhibition result in the data set listed under Sus scrofa [1] is “Active”. Besides, the inhibition result in the data set listed under Sus scrofa [2] is “inactive”.
For `COC(=O)Nc1nc2cc(C(=O)c3cccs3)ccc2[nH]1`, in the data set filed under Sus scrofa [2], the inhibition result is “Active”.
For `COc1cc(COc2ccc(NC(=O)CCCc3ccc(-c4cccnc4F)cc3)cc2)c([N+](=O)[O-])cc1OC`, the Drug metabolism in data set [3] was 80%. The TIME in [4] was 0.0101 h; in data set [5], above 0.0333 h. Further, the results for the concentration giving a half-maximal response (EC50) at 72 h in data set [6] and in data set [8] were 72000 nM and 37400 nM, respectively. The half-maximal effective concentration (EC50) in the data set on U-251 [7] came to 2100 nM; in data set [9], 1200 nM. Moreover, the Activity result is on record as “Not Active” in [10]; “Not Active” in data set [12]; “Not Active” in data set [13]; “Not Active” in [14]; 12.6% in data set [17]; 36.95% in [18]. Moreover, the Activity in data set [19] is 20.75%; in [20], 41.3%; in data set [21], 0.5%. In addition, the inhibition result in the data set filed under Sus scrofa [11] is “Active”. In addition, the outcome in the data set filed under Homo sapiens [15] and in the data set listed under Homo sapiens [16] was Active.
As for `COc1cc(COC(=O)C(C)NC(=O)OC(C)(C)C)c([N+](=O)[O-])cc1OC` (stereo unspecified), in data set [22], the Drug metabolism entry is reported as “Metabolite_Detected”. Moreover, the result in the data set on U-251 [23] was inactive.
As for `CC(=O)O[C@H]1C(=O)[C@@]2(C)[C@H]([C@H](OC(=O)c3ccccc3)[C@]3(O)C[C@H](OC(=O)[C@H](O)[C@@H](NC(=O)c4ccccc4)c4ccccc4)C(C)=C1C3(C)C)[C@]1(OC(C)=O)CO[C@@H]1C[C@@H]2O`, the inhibition result in the data set filed under Sus scrofa [1] is “inactive”.
With `O=C(CCCc1ccc(-c2cccnc2F)cc1)Nc1ccc(O)cc1`, the Stability result in data set [24] was “Stable”. In addition, the EC50 with U-251 [25] came out at 1300 nM; in the data set on U-251 [7], 1400 nM; in data set [26], 300 nM; in data set [9], 700 nM. Besides, the inhibition result in the data set listed under Sus scrofa [27] was “Active”. In addition, the inhibition result in the data set filed under Sus scrofa [28] was “Dose-dependent effect”. Moreover, the outcome in the data set listed under Homo sapiens [29] and in the data set filed under Homo sapiens [30] was Active. In addition, in data set [31], the Activity was 47.8%.
In the case of `O=C(CCCc1ccc(-c2cccnc2F)cc1)Nc1ccc(OCc2ccccc2)cc1`, the result with U-251 [32] was inactive.
